Results reported in BindingDB's records for doi:10.1016/j.bmcl.2007.05.064 (Sungkyunkwan University, 2007).

Biological target: cGMP-specific 3',5'-cyclic phosphodiesterase (Homo sapiens, UniProt O76074)
Test: Inhibition of PDE5

- IC50: 426 nM
SMILES: CCCc1nn(C)c2c(=O)[nH]c(-c3cc(S(=O)(=O)N4CCN(C)CC4)cc4c3OCO4)nc12
